Measured values: patent US11505523B2, “HDAC8 inhibitors for treating cancer” (City of Hope, priority 2013, dated 2022)

Experiments:
[1] = tested on: CL1-5 cells; test: Cytotoxicity / anti-proliferative activity in CL1-5 lung cancer cells
[2] = target: HDAC1 (Homo sapiens (Human), UniProt Q13547); test: Inhibition of purified HDAC1; type: biochemical; conditions: class I; read-out: HDAC 1 IC50
[3] = tested on: A549 cells; test: Cytotoxicity / anti-proliferative activity in A549 lung cancer cells; conditions: result in words
[4] = tested on: normal IMR-90 cells; test: Cytotoxicity in normal IMR-90 cells; conditions: result in words
[5] = target: HDAC6 (Homo sapiens (Human), UniProt Q9UBN7); test: Inhibition of purified HDAC6; conditions: read-out: HDAC 6 IC50; class II
Sequence of HDAC6 (Q9UBN7 whole entry, species assumed): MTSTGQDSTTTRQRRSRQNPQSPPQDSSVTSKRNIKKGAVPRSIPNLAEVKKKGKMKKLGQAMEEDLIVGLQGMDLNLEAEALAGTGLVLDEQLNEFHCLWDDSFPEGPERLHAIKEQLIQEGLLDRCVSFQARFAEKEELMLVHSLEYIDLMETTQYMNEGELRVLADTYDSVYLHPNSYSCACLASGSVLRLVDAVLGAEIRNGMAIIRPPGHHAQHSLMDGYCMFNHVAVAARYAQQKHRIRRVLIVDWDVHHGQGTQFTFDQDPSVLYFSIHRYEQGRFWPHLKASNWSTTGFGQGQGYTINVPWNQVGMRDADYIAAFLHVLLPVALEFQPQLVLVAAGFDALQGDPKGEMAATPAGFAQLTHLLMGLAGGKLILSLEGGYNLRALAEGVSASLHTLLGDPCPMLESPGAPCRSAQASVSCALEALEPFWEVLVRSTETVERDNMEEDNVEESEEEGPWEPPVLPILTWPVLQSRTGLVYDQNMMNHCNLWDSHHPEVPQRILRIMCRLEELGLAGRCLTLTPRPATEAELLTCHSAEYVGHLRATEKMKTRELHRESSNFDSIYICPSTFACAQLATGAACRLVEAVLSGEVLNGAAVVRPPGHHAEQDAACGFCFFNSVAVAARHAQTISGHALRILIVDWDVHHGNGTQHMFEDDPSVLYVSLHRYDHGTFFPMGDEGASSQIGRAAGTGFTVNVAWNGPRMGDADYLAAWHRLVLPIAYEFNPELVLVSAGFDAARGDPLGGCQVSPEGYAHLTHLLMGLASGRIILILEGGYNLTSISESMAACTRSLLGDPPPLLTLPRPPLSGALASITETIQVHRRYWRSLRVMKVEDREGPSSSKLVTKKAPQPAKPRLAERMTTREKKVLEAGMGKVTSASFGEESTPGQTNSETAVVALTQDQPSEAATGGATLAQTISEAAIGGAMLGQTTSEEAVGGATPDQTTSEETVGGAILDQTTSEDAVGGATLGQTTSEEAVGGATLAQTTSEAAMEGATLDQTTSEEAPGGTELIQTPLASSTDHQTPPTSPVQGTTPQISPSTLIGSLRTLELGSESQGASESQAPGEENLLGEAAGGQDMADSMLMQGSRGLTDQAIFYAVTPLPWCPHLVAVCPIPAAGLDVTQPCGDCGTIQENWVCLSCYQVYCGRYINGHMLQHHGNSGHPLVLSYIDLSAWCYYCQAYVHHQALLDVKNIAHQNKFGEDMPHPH

[6] = tested on: Ac-p53 in non-inv(16) AML (p53 non-mutated) CD34^+ cells; test: Western blot of Ac-p53 in non-inv(16) AML CD34+ cells; conditions: similar treatment
Excerpt: We therefore tested whether inhibiting HDAC8 deacetylase activity in inv(16)^+ AML CD34^+ cells could similarly lead to increased p53 acetylation and transcriptional activity.

[7] = tested on: Ac-p53 (K379) in 32D-CM cells; test: Western blot of Ac-p53 in CBFβ-SMMHC (CM)-expressing 32D cells; type: cell-based
Excerpt: Cells were lysed in RIPA buffer containing protease inhibitor cocktail (Roche) and MG132. Antibodies used for IP were conjugated with protein A/G beads using the antibody cross-linking kit (Pierce Biotechnology, Rockford, Ill.) following manufacturer's protocol. For Western blot, proteins were resolved in 10% SDS-PAGE. The antibodies used induced anti-FLAG (Sigma), anti-HDAC8, anti-CBFβ (Santa Cruz), anti-p53 (DO-1), anti-Ac-p53 (K379) (Cell Signaling), anti-p53 (Cell signaling) and anti-β-actin (Sigma). Horseradish peroxidase-conjugated anti-rabbit or anti-mouse secondary antibodies (Jackson ImmunoResearch, West Grove Pa.) were used, followed by detection using the SuperFemto kit (Pierce Biotechnology, Rockford, Ill.).
Class 1 HDACs, including HDAC1, HDAC2, and HDAC3, reportedly could inhibit p53 activity by deacetylating p53 [41-43]. […] To test this, we used lentivirus (pLKO. 1) mediated expression of 2 independent small-hairpin (sh)-RNA sequences against Hdac8 to specifically knock-down Hdac8 in 32D-CM cells. Cells were exposed to IR (3Gy) and analyzed for levels of p53 acetylation 6 h after.

[8] = tested on: dTomato^+/cKit^+ AML cells; test: In vivo administration of 22d to mice transplanted with AML cells
Method: FIG. 7A-7I. […] FIG. 7A: Schematic illustration of experimental design. Cbfb^+/56MMx1Cre/tdTomato^+ mice were induced with pIpC and AML cells were isolated from bone marrow of moribund mice and transplanted into sub-lethally irradiated (6.5 Gy) C57Bl/6 congenic mice. […] AML engraftment was analyzed at the end of the treatment period, and transplanted into 2nd recipients. Recipients were analyzed for engraftment at 8 weeks or monitored for leukemia onset and survival. […] Mice were analyzed 8 weeks after transplantation. […] FIG. 7G.
AML cells (1×10^6 or 2×10^6) were directly transplanted into sub-lethally irradiated congenic recipients. […] To further assess the impact on LSC activity, we transplanted bone marrow cells (2×10^6) from these treated mice into secondary recipients and analyzed for AML engraftment.

[9] = tested on: H1299 cells; test: Cytotoxicity / anti-proliferative activity in H1299 lung cancer cells
[10] = target: HDAC2 (Homo sapiens (Human), UniProt Q92769); test: Inhibition of purified HDAC2; conditions: read-out: HDAC 2 IC50; class I
Sequence of HDAC2 (Q92769 whole entry, species assumed): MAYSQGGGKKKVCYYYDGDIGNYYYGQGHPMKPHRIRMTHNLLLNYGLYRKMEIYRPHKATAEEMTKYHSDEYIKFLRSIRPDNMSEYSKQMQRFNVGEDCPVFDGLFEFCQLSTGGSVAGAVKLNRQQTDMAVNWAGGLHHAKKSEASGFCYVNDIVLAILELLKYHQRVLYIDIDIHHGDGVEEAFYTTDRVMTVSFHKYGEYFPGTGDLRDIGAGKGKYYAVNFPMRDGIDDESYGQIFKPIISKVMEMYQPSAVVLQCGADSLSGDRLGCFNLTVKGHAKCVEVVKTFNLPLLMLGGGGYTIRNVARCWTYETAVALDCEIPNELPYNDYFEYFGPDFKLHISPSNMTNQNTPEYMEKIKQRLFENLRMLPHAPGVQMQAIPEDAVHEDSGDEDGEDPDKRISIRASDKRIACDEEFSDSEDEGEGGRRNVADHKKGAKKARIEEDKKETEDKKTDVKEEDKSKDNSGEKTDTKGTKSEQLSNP

[11] = tested on: p53 target genes in pre-leukemic and leukemic progenitor cells expressing CM; conditions: 10 μM, 16 h, qRT-PCR
Excerpt: Relative expression of each target gene was normalized to levels of Hprt. Shown are fold activation compared to levels in vehicle treated cells (dashed line). Results represent the mean±SD.
We next examined whether enhanced p53 acetylation translate into increased p53 transcriptional activity. Using qRT-PCR assay, we accessed induction of p53 target genes in CM-ΔC95, CM, and CBFβ expressing cells upon IR (3Gy).

[12] = tested on: MV4-11 cells; test: Survival/apoptosis of MV4-11 AML cells by Annexin V labeling; type: cell-based, human
[13] = tested on: dTomato^+/cKit^+ AML cells (CBFβ-SMMHC^+ LSCs); test: Ex vivo treatment of CM-induced AML cells followed by transplantation into irradiated congenic mice; type: in vivo
Method: FIGS. 6A-6G. […] FIG. 6A: Schematic illustration of experimental design. […] Progression of AML was monitored by engraftment of AML cells in peripheral blood (PB) over time (4, 8 weeks) and engraftment in bone marrow and spleen was analyzed 8 weeks after transplantation. A cohort of mice was monitored for AML development and disease-free survival. […] Results represent mean±SD. […] FIG. 6D: Representative FACS plots of engrafted dTomato^+/cKit^+ AML cells in the bone marrow or spleen 8 weeks after transplantation.
Ai14 Cre reporter tdTomato mice on C57BL/6 background were obtained from the Jackson Laboratory. To induce CBFβ-SMMHC expression, 4-6 week old Mx1-Cre/Cbfb^56M/+ mice were injected with 250 μg of polyinosinic-polycytidylic acid (pIpC) (InvivoGen) every 2 days for 7 doses. Similarly treated Cbfb^56M/+ littermates without Cre were used as control. Pre-leukemic cells were isolated from mice 2 weeks after the last dose of pIpC treatment. For leukemia development, induced mice were monitored up to 6 months and analyzed when moribund. Transplantation of AML cells (2×10^6 cells/mouse) was performed via tail vein injection into sub-lethally irradiated (6.5 Gy) 6-8-week-old congenic C57BL/6 mice (CD45.1^+/CD45.2^+). All mice were maintained in an AAALAC-accredited animal facility at City of Hope, and all experimental procedures involving mice were performed in accordance with federal and state government guidelines and established institutional guidelines and protocols approved by the Institutional Animal Care and Use Committee at Beckman Research Institute of City of Hope.
AML LSCs are functionally characterized by their capacity to engraft and reproduce AML disease in transplanted host. […] To test this, we made use of our murine CM-induced AML model allowing for high-level engraftment and reproducible disease upon secondary transplantation. To facilitate tracking of CM-expressing AML cells, we created Cbfb^56M/+/Mx1-Cre mice with a Cre-reporter line expressing tdTomato fluorescence protein following Cre-mediated recombination.

Sequence of HDAC1 (Q13547 whole entry, species assumed): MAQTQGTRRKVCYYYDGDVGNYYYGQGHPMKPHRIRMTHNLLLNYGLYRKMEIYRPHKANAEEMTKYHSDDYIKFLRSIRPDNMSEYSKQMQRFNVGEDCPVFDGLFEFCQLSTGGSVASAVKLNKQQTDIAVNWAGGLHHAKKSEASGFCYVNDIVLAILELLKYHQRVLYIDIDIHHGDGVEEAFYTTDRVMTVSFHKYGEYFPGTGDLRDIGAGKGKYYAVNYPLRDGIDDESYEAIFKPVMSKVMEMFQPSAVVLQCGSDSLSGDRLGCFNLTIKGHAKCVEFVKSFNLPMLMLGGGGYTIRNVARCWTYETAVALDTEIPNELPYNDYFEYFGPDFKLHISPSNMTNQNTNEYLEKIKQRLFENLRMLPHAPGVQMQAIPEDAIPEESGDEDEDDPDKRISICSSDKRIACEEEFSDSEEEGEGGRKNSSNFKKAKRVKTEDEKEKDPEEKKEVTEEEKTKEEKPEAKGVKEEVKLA

COc1ccc(/C=C/C(=O)NO)c(-c2ccc(-c3ccccc3)cc2)c1 [Compound 22d, (E)-N-Hydroxy-4-methoxy-2-(biphenyl-4-yl)cinnamide]
IC50 ([1]; read-out: Cytotoxicity IC50 Cl1-5, mean SD of three determinations): 7 ± 1.5 nM | activity in CL1-5 cells ([1]; result in words): activity similar to that of SAHA | IC50 [2]: 3 ± 0.2 nM | anti-proliferative effects in A549 cells [3]: moderate anti-proliferative effects | cytotoxicity in normal IMR-90 cells [4]: no significant cytotoxicity | IC50 [5]: > 20 nM | Ac-p53 level in non-inv(16) AML CD34+ cells [6]: did not affect Ac-p53 | Ac-p53 level in CM-expressing cells ([7]; Western blot, 6 h): remarkably increased Ac-p53 | Ac-p53 level, in combination with Nutlin-3 ([7]; compared to Nutlin-3 alone): enhanced Ac-p53 compared to Nutlin-3 alone | enhancement of p53 acetylation compared to other HDAC inhibitors ([7]; vs MS-275, TV6, PCI-24781): differential activity in enhancing p53 acetylation | leukemia onset in secondary recipients ([8]; 5-7 weeks after transplant of 5×10^6 BM cells): no signs of leukemia | frequency and number of AML cells in bone marrow of secondary recipients ([8]; 8 weeks after transplantation of BM from treated mice): Significant reduction in the frequency (p<0.0001) and the number (p=0.0006) | frequency and number of dTomato+/cKit+ AML cells in the bone marrow ([8]; intraperitoneal 50 mg/kg/dose twice a day for 2 weeks, vs vehicle): significantly reduced the frequency (p=0.0097) and the number (p=0.0101) | IC50 ([9]; read-out: Cytotoxicity IC50 H1299, mean SD of three determinations): 7.2 ± 0.7 nM | anti-proliferative effects in H1299 cells ([9]; result in words): moderate anti-proliferative effects | IC50 [10]: > 20 nM | activation of p53 target genes in progenitor cells expressing endogenous levels of CM [11]: induces activation of p53 targets | IC50 ([12]; 48-hr, Annexin V labeling, read-out: MV4-11 Apoptosis IC50): 2710 nM | survival of MV4-11 cells ([12]; 48 h, result in words): decreases with increased HDAC8i concentration | frequencies of dTomato+/cKit+ AML cells in BM and spleen ([13]; 8 weeks after transplantation, vs vehicle-treated cells): significantly (p=0.025) reduced frequencies | total numbers of dTomato+/cKit+ AML cells in BM and spleen ([13]; 8 weeks after transplantation, vs vehicle-treated group): significantly (p=0.025) lower | dTomato+/cKit+ cells in the peripheral blood ([13]; cells treated 10 μM 48 h before transplantation): barely detectable | engraftment of dTomato+ and dTomato+/cKit+ cells ([13]; equal number (2×10^6) of treated AML cells transplanted): reduced the engraftment | AML onset and survival of transplanted mice ([13]; mouse, in vivo): prevented AML reoccurrence | survival of mice ([13]; mouse, in vivo): enhanced survival
